Measurements: US11802120B2, “Fused cyclic urea derivatives as CRHR2 antagonist” (RaQualia Pharma Inc., priority 2018, dated 2023)

What follows are molecules tested against T1, human CRHR2-alpha (Homo sapiens, UniProt Q13324) (assay: cAMP functional assay for human CRHR2 (LANCE Ultra cAMP, TR-FRET)). Conditions: CHO-K1 cells expressing human CRHR2-alpha, agonist human urocortin2 at EC80, cAMP; read-out: IC50 against CRHR2.
T1 sequence (Q13324 1-411): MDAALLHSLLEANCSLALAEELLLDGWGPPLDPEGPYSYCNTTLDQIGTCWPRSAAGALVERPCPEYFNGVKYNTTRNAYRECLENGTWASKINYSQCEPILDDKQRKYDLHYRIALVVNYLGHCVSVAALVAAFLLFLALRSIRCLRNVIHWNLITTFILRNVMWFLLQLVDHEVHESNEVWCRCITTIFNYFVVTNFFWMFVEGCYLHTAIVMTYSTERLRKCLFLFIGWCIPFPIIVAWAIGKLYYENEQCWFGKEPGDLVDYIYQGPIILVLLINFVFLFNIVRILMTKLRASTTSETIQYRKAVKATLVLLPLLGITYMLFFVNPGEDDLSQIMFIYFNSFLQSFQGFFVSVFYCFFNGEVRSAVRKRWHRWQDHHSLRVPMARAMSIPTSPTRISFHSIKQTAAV
Assay type: cell-based
In short: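 IC50 values derive from percent inhibition of EC80 agonist-stimulated cAMP in CHO-K1 transfectants, with 0.5 mM IBMX present; the CRHR2 line was stimulated by human urocortin2 and the CRHR1 line by CRF.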

SMILES	IC50
Cc1ncc(Cl)cc1C(=O)N[C@H]1CC[C@H](Cn2c(=O)n(-c3ccc(-c4ccn(C)n4)nc3)c3ccccc32)CC1 [Example 654, 5-chloro-2-methyl-N-((1r,4r)-4-((3-(6-(1-methyl-1H-pyrazol-3-yl)pyridin-3-yl)-2-oxo-2,3-dihydro-1H-benzo[d]imidazol-1-yl)methyl)cyclohexyl)nico-tinamide]	< 300 nM
CNC(=O)c1noc2cc(-n3c(=O)n(C[C@H]4CC[C@H](NC(=O)c5cc(Cl)cnc5C)CC4)c4ccccc43)ccc12 [Example 244, 6-(3-(((1r,4r)-4-(5-chloro-2-methylnicotinamido)cyclohexyl)methyl)-2-oxo-2,3-dihydro-1H-benzo[d]imidazol-1-yl)-N-methylbenzo[d]isoxazole-3-carboxamide]	< 300 nM
Cc1ncc(Cl)cc1C(=O)N[C@H]1CC[C@H](Cn2c(=O)n(-c3cnc4[nH]nc(C)c4c3)c3ccccc32)CC1 [Example 271, 5-chloro-2-methyl-N-((1r,4r)-4-((3-(3-methyl-1H-pyrazolo[3,4-b]pyridin-5-yl)-2-oxo-2,3-dihydro-1H-benzo[d]imidazol-1-yl)methyl)cyclohexyl)nicotinamide]	< 300 nM
Cc1cc2cc(-n3c(=O)n(C[C@H]4CC[C@H](NC(=O)c5cc(Cl)cnc5C(F)F)CC4)c4ccccc43)cnc2n1C [Example 674, 5-chloro-2-(difluoromethyl)-N-((1r,4r)-4-((3-(1,2-dimethyl-1H-pyrrolo[2,3-b]pyridin-5-yl)-2-oxo-2,3-dihydro-1H-benzo[d]imidazol-1-yl)methyl)cyclohexyl)nicotinamide]	< 300 nM
Cc1ncc(Cl)cc1C(=O)N[C@H]1CC[C@H](Cn2c(=O)n(-c3ccc(-c4cncs4)cc3)c3ccccc32)CC1 [Example 580, 5-chloro-2-methyl-N-((1r,4r)-4-((2-oxo-3-(4-(thiazol-5-yl)phenyl)-2,3-dihydro-1H-benzo[d]imidazol-1-yl)methyl)cyclohexyl)nicotinamide]	< 300 nM
Cc1ncc(Cl)cc1C(=O)N[C@H]1CC[C@H](Cn2c(=O)n(-c3ccc4nccnc4c3)c3ccccc32)CC1 [Example 165, 5-chloro-2-methyl-N-((1r,4r)-4-((2-oxo-3-(quinoxalin-6-yl)-2,3-dihydro-1H-benzo[d]imidazol-1-yl)methyl)cyclo-hexyl)nicotinamide]	< 300 nM
Cc1ccc(C(F)(F)F)c(C(=O)N[C@H]2CC[C@H](Cn3c(=O)n(-c4ccc(C)nc4)c4ccccc43)CC2)c1 [Example 268, 5-methyl-N-((1r,4r)-4-((3-(6-methylpyridin-3-yl)-2-oxo-2,3-dihydro-1H-benzo[d]imidazol-1-yl)methyl)cyclohexyl)-2-(trifluoromethyl)benzamide]	< 300 nM
Cc1ncc(Cl)cc1C(=O)N[C@H]1CC[C@H](Cn2c(=O)n(-c3cccc(N(C)C)c3C#N)c3ccccc32)CC1 [Example 309, 5-choro-N-((1r,4r)-4-((3-(2-cyano-3-(dimethylamino)phenyl)-2-oxo-2,3-dihydro-1H-benzo[d]imidazol-1-yl)methyl)cyclohexyl)-2-methylnicotinamide]	< 300 nM
Cc1ncc(Cl)cc1C(=O)N[C@H]1CC[C@H](Cn2c(=O)n(-c3cccc4c3cnn4C)c3ccccc32)CC1 [Example 347, 5-chloro-2-methyl-N-((1r,4r)-4-((3-(1-methyl-1H-indazol-4-yl)-2-oxo-2,3-dihydro-1H-benzo[d]imidazol-1-yl)methyl)cyclohexyl)nicotinamide]	< 300 nM
CCC(=O)Nc1ccc(-n2c(=O)n(C[C@H]3CC[C@H](NC(=O)c4cc(Cl)cnc4C(F)(F)F)CC3)c3ccccc32)cn1 [Example 643, 5-chloro-N-((1r,4r)-4-((2-oxo-3-(6-propionamido-pyridin-3-yl)-2,3-dihydro-1H-benzo[d]imidazol-1-yl)methyl)cyclohexyl)-2-(tri-fluoromethyl)nicotinamide]	< 300 nM
COc1ccc(-n2c(=O)n(C[C@H]3CC[C@H](NC(=O)c4c5ccccc5nn4C)CC3)c3ccccc32)cn1 [Example 220, N-((1r,4r)-4-((3-(6-methoxy-pyridin-3-yl)-2-oxo-2,3-dihydro-1H-benzo[d]imidazol-1-yl)methyl)cyclohexyl)-2-methyl-2H-indazole-3-carboxamide]	< 300 nM
O=C(N[C@H]1CC[C@H](Cn2c(=O)n(-c3ccc(NCCO)nc3)c3ccccc32)CC1)c1cc(Cl)cnc1C(F)F [Example 571, 5-chloro-2-(difluoromethyl)-N-((1r,4r)-4-((3-(6-((2-hydroxyethyl)amino)pyridin-3-yl)-2-oxo-2,3-dihydro-1H-benzo[d]imidazol-1-yl)methyl)cyclohexyl)nicotinamide]	< 300 nM
Cc1ncc(Cl)cc1C(=O)N[C@H]1CC[C@H](Cn2c(=O)n(-c3ccc4c(c3)nnn4CCO)c3ccccc32)CC1 [Example 276, 5-chloro-N-((1r,4r)-4-((3-(1-(2-hydroxyethyl)-1H-benzo[d][1,2,3]triazol-5-yl)-2-oxo-2,3-dihydro-1H-benzo[d]imidazol-1-yl)methyl)cyclohexyl)-2-methylnicotinamide]	< 300 nM
O=C(N[C@H]1CC[C@H](Cn2c(=O)n(-c3ccc(-c4ncc[nH]4)cc3)c3ccccc32)CC1)c1cc(Cl)cnc1C(F)F [Example 743, N-((1r,4r)-4-((3-(4-(1H-imidazol-2-yl)phenyl)-2-oxo-2,3-dihydro-1H-benzo[d]imidazol-1-yl)methyl)cyclohexyl)-5-chloro-2-(difluoromethyl)nicotinamide]	< 300 nM
Cc1cc(-n2c(=O)n(C[C@H]3CC[C@H](NC(=O)c4cc(Cl)cnc4C(F)(F)F)CC3)c3ccccc32)ccn1 [Example 316, 5-chloro-N-((1r,4r)-4-((3-(2-methylpyridin-4-yl)-2-oxo-2,3-dihydro-1H-benzo [d]imidazol-1-yl)methyl)cyclohexyl)-2-(trifluoro-methyl)nicotinamide]	< 300 nM
CN1CCN(c2cc(-n3c(=O)n(C[C@H]4CC[C@H](NC(=O)c5cc(Cl)cnc5C(F)F)CC4)c4ccccc43)ccn2)C1=O [Example 707, 5-chloro-2-(difluoromethyl)-N-((1r,4r)-4-((3-(2-(3-methyl-2-oxoimidazolidin-1-yl)pyridin-4-yl)-2-oxo-2,3-dihydro-1H-benzo[d]imidazol-1-yl)methyl)cyclohexyl) nicotinamide]	< 300 nM
O=C(N[C@H]1CC[C@H](Cn2c(=O)n(-c3cc(F)ccc3Cl)c3cccnc32)CC1)c1cc(Cl)cnc1C(F)F [Example 676, 5-chloro-N-((1r,4r)-4-((1-(2-chloro-5-fluorophenyl)-2-oxo-1H-imidazo[4,5-b]pyridin-3(2H)-yl)methyl)cyclohexyl)-2-(difluoro-methyl)nicotinamide]	< 300 nM
Cc1ncc(Cl)cc1C(=O)N[C@H]1CC[C@H](Cn2c(=O)n(-c3ccc4c(cnn4C)c3)c3ccccc32)CC1 [Example 141, 5-chloro-2-methyl-N-((1r,4r)-4-((3-(1-methyl-1H-indazol-5-yl)-2-oxo-2,3-dihydro-1H-benzo [d]imidazol-1-yl)methyl)cyclohexyl)nicotinamide]	< 300 nM
N#Cc1ncccc1-n1c(=O)n(C[C@H]2CC[C@H](NC(=O)c3cc(Cl)cnc3C(F)(F)F)CC2)c2ccccc21 [Example 293, 5-chloro-N-((1r,4r)-4-((3-(2-cyanopyridin-3-yl)-2-oxo-2,3-dihydro-1H-benzo [d]imidazol-1-yl)methyl)cyclohexyl)-2-(trifluoro-methyl)nicotinamide]	< 300 nM
O=C(N[C@H]1CC[C@H](Cn2c(=O)n(-c3ccc(N4CCNC4=O)nc3)c3ccccc32)CC1)c1cc(Cl)cnc1C(F)F [Example 523, 5-chloro-2-(difluoromethyl)-N-((1r,4r)-4-((2-oxo-3-(6-(2-oxoimidazolidin-1-yl)pyridin-3-yl)-2,3-dihydro-1H-benzo[d]imidazol-1-yl)methyl)cyclohexyl)nicotinamide]	< 300 nM
O=C(N[C@H]1CC[C@H](Cn2c(=O)n(CCOc3ccccc3)c3ncccc32)CC1)c1cc(Cl)cnc1C(F)F [Example 458, 5-chloro-2-(difluoromethyl)-N-((1r,4r)-4-((2-oxo-3-(2-phenoxyethyl)-2,3-dihydro-1H-imidazo[4,5-b]pyridin-1-yl)methyl)cyclohexyl) nicotinamide]	< 300 nM
Cc1ncc(Cl)cc1C(=O)N[C@H]1CC[C@H](Cn2c(=O)n(-c3cccc(-c4ncco4)c3)c3ccccc32)CC1 [Example 516, 5-chloro-2-methyl-N-((1r,4r)-4-((3-(3-(oxazol-2-yl)phenyl)-2-oxo-2,3-dihydro-1H-benzo [d]imidazol-1-yl)methyl)cyclo-hexyl)nicotinamide]	< 300 nM
COCCNc1cc(C#N)c(-n2c(=O)n(C[C@H]3CC[C@H](NC(=O)c4cc(Cl)cnc4C)CC3)c3ccccc32)cn1 [Example 310, 5-chloro-N-((1r,4r)-4-((3-(4-cyano-6-((2-methoxyethyl)amino)pyridin-3-yl)-2-oxo-2,3-dihydro-1H-benzo[d]imidazol-1-yl)methyl)cyclohexyl)-2-methylnicotinamide]	< 300 nM
CNC(=O)c1ccc(-n2c(=O)n(C[C@H]3CC[C@H](NC(=O)c4cc(C(F)(F)F)ccc4C)CC3)c3ccccc32)cn1 [Example 532, N-methyl-5-(3-(((1r,4r)-4-(2-methyl-5-(trifluoromethyl)benzamido)cyclohexyl)methyl)-2-oxo-2,3-dihydro-1H-benzo[d]imidazol-1-yl) picolinamide]	< 300 nM
